Laboratory results published in patent US20260256923A1, “NEW RECRUITMENT ELEMENT OF UBIQUITIN LIGASE AND USE THEREOF” (SHENZHEN LINGGENE BIOTECH CO., LTD., priority 2023, published 2026).

Legend:
MDM2 [1] = biological target: T1, MDM2 (Homo sapiens, UniProt P19338+Q00987); assay: MDM2 protein degradation in A549 non-small cell lung cancer cells, western blot; type: cell-based; conditions: A549, 200 nM, 3 h
T1 construct: endogenous in cells; host or cells: A549
Description: (1) A549 non-small cell lung cancer cells were incubated with 200 nM AS1411-VH032, and corresponding cell samples were collected at time gradients of 0 h, 3 h, 6 h, 9 h, 12 h, and 24 h for protein extraction and subsequent western blot assay to detect protein degradation.
(2) A549 non-small cell lung cancer cells were incubated with AS1411-VH032 at concentrations of 0 nM, 50 nM, 100 nM, 150 nM, 200 nM, and 250 nM. After 3 h, cell samples were collected for protein extraction and subsequent western blot assay to detect protein degradation.
(3) A549 non-small cell lung cancer cells were incubated with 200 nM AS1411, VH032, AS1411-VH032, or AS1411+VH032. After 3 h, cell samples were collected for protein extraction and subsequent western blot assay to detect protein degradation.
(4) A549 non-small cell lung cancer cells were incubated with 200 nM AS1411-VH032 for 3 h, and proteasome inhibitor MG132 was added. Cell samples were collected for protein extraction and subsequent western blot assay.
(5) A549 non-small cell lung cancer cells were transfected with si-NC or si-NCL and subsequently incubated with 200 nM AS1411-VH032 for 3 h. Cell samples were collected for protein extraction and subsequent western blot assay.
(1) A549 non-small cell lung cancer cells were incubated with 1000 nM AS1411-AS1411, and corresponding cell samples were collected at time gradients of 0 h, 3 h, 6 h, 9 h, 12 h, and 24 h for protein extraction and subsequent western blot assay to detect protein degradation.
(2) A549 non-small cell lung cancer cells were incubated with AS1411-AS1411 at concentrations of 0 nM, 50 nM, 100 nM, 250 nM, 500 nM, and 1000 nM. After 12 h, cell samples were collected for protein extraction and subsequent western blot assay to detect protein degradation.
(3) A549 non-small cell lung cancer cells were incubated with 1000 nM AS1411, AS1411-AS1411, or AS1411+AS1411. After 12 h, cell samples were collected for protein extraction and subsequent western blot assay to detect protein degradation. […]

[2] = system: MCF 10A human normal mammary epithelial cells; assay: Toxicity to normal cells, cell apoptosis proportion by flow cytometer; type: cell-based; conditions: 0-5000 nM, 4 days, medium renewed every day
Description: The toxicity of AS1411 to normal cells was compared with that of the small molecule ligand nutlin-3a of MDM2 to normal cells. AS1411 or nutlin-3a at different concentrations (0 nM, 500 nM, 1000 nM, and 5000 nM) was incubated with MCF 10A human normal mammary epithelial cells for 4 days, and the medium containing the respective concentrations of AS1411 or nutlin-3a was renewed every day. The cell apoptosis proportion was detected using a flow cytometer.

NCL [3] = biological target: T2, NCL (Homo sapiens, UniProt P19338); assay: Biotin-oligonucleotide pull-down from HeLa cell lysate, western blot (NCL); type: binding; design: HeLa cervical cancer cells were lysed with an IP lysis solution; endogenous in cells; host or cells: HeLa cell lysate; conditions: 5′-biotin label, 0 nM-20 μM
Description: (§1) HeLa cervical cancer cells were lysed with an IP lysis solution (purchased from Thermo Scientific, Cat. No.: 87788) and then incubated with a CRO (cytosine-rich oligonucleotide, negative control, SEQ ID NO: 13), AS1411, or iSN04 labeled by biotin at the 5′ end at different concentrations (0 nM, 200 nM, 500 nM, 1 μM, 5 μM, 10 μM, and 20 μM) at 4° C. for 6h. Subsequently, streptavidin agarose gel beads (purchased from cytiva, Cat. No.: 17511301) were added, and the mixture was further incubated at 4° C. overnight. After the bound biotin-labeled CRO, AS411, or iSN04 and its captured proteins on the gel beads were washed multiple times with an IP lysis buffer (purchased from Thermo Scientific, Cat. No.: 87788), an SDS-PAGE protein loading buffer (purchased from Beyotime, Cat. No.: P0015) was added, and the mixture was heated to 100° C. and held for 10 min. After centrifugation, the supernatant was collected as a pull-down product. The pull-down product was detected by western blot assay.

NCL [4] = biological target: T2, NCL; assay: Biotin-oligonucleotide pull-down with recombinant proteins (NCL); type: binding; design: purchased ACROBiosystems (NCL); R&D Systems (MDM2) NUL-H5253 (NCL); E3-202-050 (MDM2); conditions: 400 nM 5′-biotin label, 6 μg/mL NCL + 6 μg/mL MDM2
Description: (§2) 6 μg/mL recombinant human NCL and 6 μg/mL recombinant human MDM2 were mixed well and incubated at 4° C. for 7 h. Subsequently, 400 nM CRO, AS1411, or iSN04 labeled by biotin at the 5′ end was added, and the mixture was incubated at 4° C. for 6 h. Streptavidin agarose gel beads (purchased from cytiva, Cat. No.: 17511301) were added, and the mixture was further incubated at 4° C. overnight. The gel beads were washed 4 times with a TBST buffer, and an SDS-PAGE protein loading buffer (purchased from Beyotime, Cat. No.: P0015) was added. The mixture was heated to 100° C. and held for 10 min. After centrifugation, the supernatant was collected. The pull-down product was then detected by western blot assay.

MDM2 [5] = biological target: T3, MDM2 (Homo sapiens, UniProt Q00987); assay: Biotin-oligonucleotide pull-down from HeLa cell lysate, western blot (MDM2); type: binding; design: HeLa cervical cancer cells were lysed with an IP lysis solution; endogenous in cells; host or cells: HeLa; conditions: 5′-biotin label, 0 nM-20 μM
Description: as §1
Target sequence in this assay (P19338 2-710 partner limits assumed): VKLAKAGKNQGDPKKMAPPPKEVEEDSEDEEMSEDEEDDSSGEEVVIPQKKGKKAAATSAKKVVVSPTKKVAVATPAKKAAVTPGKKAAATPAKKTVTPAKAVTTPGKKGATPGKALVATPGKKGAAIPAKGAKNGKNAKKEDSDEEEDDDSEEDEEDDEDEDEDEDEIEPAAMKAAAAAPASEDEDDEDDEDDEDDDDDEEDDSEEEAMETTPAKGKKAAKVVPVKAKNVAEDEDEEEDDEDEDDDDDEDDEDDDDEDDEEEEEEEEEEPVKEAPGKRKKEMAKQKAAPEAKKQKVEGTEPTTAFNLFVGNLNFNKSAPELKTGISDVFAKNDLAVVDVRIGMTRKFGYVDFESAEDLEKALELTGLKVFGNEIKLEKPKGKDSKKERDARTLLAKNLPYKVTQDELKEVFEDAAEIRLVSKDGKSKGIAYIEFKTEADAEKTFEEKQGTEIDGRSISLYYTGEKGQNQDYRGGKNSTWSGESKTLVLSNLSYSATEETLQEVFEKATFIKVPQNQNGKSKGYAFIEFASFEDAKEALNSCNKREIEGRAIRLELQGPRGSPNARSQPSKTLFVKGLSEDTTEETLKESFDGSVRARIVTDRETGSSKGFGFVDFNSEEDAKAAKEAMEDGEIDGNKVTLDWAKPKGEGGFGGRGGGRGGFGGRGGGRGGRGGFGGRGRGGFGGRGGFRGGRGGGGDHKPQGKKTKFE
Target sequence in this assay (Q00987 whole entry): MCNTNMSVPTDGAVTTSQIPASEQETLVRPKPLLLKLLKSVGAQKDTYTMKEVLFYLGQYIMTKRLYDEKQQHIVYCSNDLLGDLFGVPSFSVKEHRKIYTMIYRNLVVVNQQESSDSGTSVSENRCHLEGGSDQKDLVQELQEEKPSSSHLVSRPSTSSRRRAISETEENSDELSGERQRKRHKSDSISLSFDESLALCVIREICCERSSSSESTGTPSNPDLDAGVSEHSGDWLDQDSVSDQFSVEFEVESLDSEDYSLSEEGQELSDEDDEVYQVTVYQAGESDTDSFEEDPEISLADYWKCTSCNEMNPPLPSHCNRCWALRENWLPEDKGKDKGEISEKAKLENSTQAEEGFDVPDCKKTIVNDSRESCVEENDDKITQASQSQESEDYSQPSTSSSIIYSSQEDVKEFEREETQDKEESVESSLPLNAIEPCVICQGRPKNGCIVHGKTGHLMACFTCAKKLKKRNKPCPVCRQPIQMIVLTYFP

MDM2 [6] = biological target: T3, MDM2; assay: Biotin-oligonucleotide pull-down with recombinant proteins (MDM2); type: binding; design: purchased R&D Systems (MDM2); ACROBiosystems (NCL) E3-202-050 (MDM2); NUL-H5253 (NCL); conditions: 400 nM 5′-biotin label, 6 μg/mL NCL + 6 μg/mL MDM2
Description: as §2
Target sequence in this assay (P19338 whole entry partner): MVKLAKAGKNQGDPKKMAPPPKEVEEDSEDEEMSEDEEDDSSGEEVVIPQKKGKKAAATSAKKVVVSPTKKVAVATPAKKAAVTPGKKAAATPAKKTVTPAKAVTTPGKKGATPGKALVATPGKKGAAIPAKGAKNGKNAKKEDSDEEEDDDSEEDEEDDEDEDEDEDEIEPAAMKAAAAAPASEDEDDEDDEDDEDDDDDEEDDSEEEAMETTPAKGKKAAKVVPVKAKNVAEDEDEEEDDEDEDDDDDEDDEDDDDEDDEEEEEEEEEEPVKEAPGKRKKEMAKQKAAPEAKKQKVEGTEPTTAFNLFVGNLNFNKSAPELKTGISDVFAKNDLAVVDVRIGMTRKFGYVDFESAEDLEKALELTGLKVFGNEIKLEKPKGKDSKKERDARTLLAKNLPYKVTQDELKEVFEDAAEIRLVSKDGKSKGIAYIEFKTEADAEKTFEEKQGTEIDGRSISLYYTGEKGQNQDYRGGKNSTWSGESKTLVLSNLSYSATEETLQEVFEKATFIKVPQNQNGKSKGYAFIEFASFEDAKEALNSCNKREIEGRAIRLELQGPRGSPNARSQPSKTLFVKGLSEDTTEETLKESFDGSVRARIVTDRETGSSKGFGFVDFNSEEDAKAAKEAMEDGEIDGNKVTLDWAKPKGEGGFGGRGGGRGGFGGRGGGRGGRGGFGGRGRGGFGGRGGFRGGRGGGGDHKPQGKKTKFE
Target sequence in this assay (Q00987 whole entry): as the sequence (Q00987 whole entry) above

[7] = G4 structural characteristics, N-methyl mesoporphyrin IX (NMM) fluorescent probe; type: physicochemical; conditions: 1 μM NMM
Description: Both AS1411 and iSN04 are oligonucleotides specifically binding to NCL. The sequence of AS1411 is SEQ ID NO: 1, and the sequence of iSN04 is SEQ ID NO: 14. AS1411 contains a plurality of GGT motifs, and iSN04 contains one GGT motif. Whether AS1411 and iSN04 have stable G4 structural characteristics was determined. The experimental process was as follows: 5 μM NC (negative control, SEQ ID NO: 15), AS1411, or iSN04 was added to water, and the total volume was 100 μL. The mixture was heated at 95° C. for 7 min and then immediately incubated on ice for 3 min, followed by the addition of 2 μL of N-methyl mesoporphyrin IX (NMM) (purchased from MCE, Cat. No.: HY-133821) to make a final concentration of 1 μM. The resulting mixture was incubated at room temperature for 1 h in the dark. The fluorescence intensity was detected by a microplate reader, with an emission wavelength of 550-700 nm and an excitation wavelength of […].
Guanine-rich DNA sequences can form more distinct G4 structural characteristics in the presence of metal ions (usually sodium and potassium ions). 5 μM NC (negative control, SEQ ID NO: 15), AS1411, or iSN04 was added to a 100 mM K^+ solution, and the total volume was 100 μL. The mixture was well mixed, heated at 95° C. for 7 min, and then immediately incubated on ice for 3 min, followed by the addition of 2 μL of N-methyl mesoporphyrin IX (NMM) (purchased from MCE, Cat. No.: HY-133821) to make a final concentration of 1 μM. The resulting mixture was incubated at room temperature for 1 h in the dark. The fluorescence intensity was detected by a microplate reader, with an emission wavelength of 550-700 nm and an excitation wavelength of […].

[8] = biological target: T4, interaction between NCL and MDM2 (Homo sapiens, UniProt P19338); assay: Co-immunoprecipitation of NCL and MDM2 from HeLa cell lysate, western blot; type: binding; conditions: 0-20 μM, 4° C. 6 h, IP with antibody against NCL
T4 construct: HeLa cervical cancer cells were lysed with an IP lysis solution; endogenous in cells; host or cells: HeLa cell lysate
Description: Co-immunoprecipitation (Co-IP) is a classical method for the study of protein interactions based on the specific interaction between an antibody and an antigen. It is an effective method to determine the physiological interaction between two proteins in intact cells.
HeLa cervical cancer cells were lysed with an IP lysis solution (purchased from Thermo Scientific, Cat. No.: 87788) and then incubated with AS 1411 or iSN04 at different concentrations (0 μM, 1 μM, 5 μM, 10 μM, and 20 μM) at 4° C. for 6 h. Subsequently, […] of an antibody against NCL was added, and the mixture was further incubated at 4° C. overnight. Protein A/G magnetic beads (purchased from Thermo Scientific, Cat. No.: 88802) were added, and the mixture was incubated with rotation at room temperature for 1.5 h. The bound NCL and its interacting proteins on the magnetic beads were washed with an IP lysis buffer (purchased from Thermo Scientific, Cat. No.: 87788), and an SDS-PAGE protein loading buffer (purchased from Beyotime, Cat. No.: P0015) was added. The mixture was heated to 100° C. and held for 10 min. The magnetic beads were adsorbed on a magnetic rack, and the supernatant was transferred into a new tube. Subsequently, western blot assay was performed to detect whether NCL bound to MDM2 and whether the binding was affected by AS 1411 or iSN04. […]

T2 sequence (P19338 whole entry): as the sequence (P19338 whole entry partner) above
T4 sequence (P19338 2-710 limits assumed): as the sequence (P19338 2-710 partner limits assumed) above
T1 sequence (Q00987 whole entry): as the sequence (Q00987 whole entry) above
T1 sequence (P19338 2-710 limits assumed): as the sequence (P19338 2-710 partner limits assumed) above

Row | Compound | protein level of MDM2 (MDM2 [1]) | toxicity to normal cells (cell apoptosis proportion) [2] | capture of NCL (NCL [3]) | binding to NCL (NCL [4]) | capture of MDM2 (MDM2 [5]) | binding / recruitment of MDM2 (MDM2 [6]) | G4 structural characteristics (fluorescence signal intensity) ([7]; 5 μM in 100 mM K+ solution) | G4 structural characteristics (fluorescence signal intensity) ([7]; 5 μM in water (no K+)) | effect on the interaction between NCL and MDM2 [8]
1 | CC(=O)N[C@H](C(=O)N1C[C@H](O)C[C@H]1C(=O)NCc1ccc(-c2scnc2C)cc1)C(C)(C)C [VH032] | neither AS1411, VH032, nor AS1411+VH032 can reduce the protein level of MDM2 |  |  |  |  |  |  |  | 
2 | COc1ccc(C2=N[C@@H](c3ccc(Cl)cc3)[C@@H](c3ccc(Cl)cc3)N2C(=O)N2CCNC(=O)C2)c(OC(C)C)c1 [nutlin-3a] |  | can cause cell apoptosis |  |  |  |  |  |  | 
3 | CRO: cytosine-rich oligonucleotide, negative control, SEQ ID NO: 13 (DNA CCTCCTCCTCCTTCTCCTCCTCCTCC; DNA, backbone and methylation of C not given here; further chemistry not fully specified) |  |  | cannot capture either NCL or MDM2 | cannot bind to either NCL or MDM2 | cannot capture either NCL or MDM2 | cannot bind to either NCL or MDM2 |  |  | 
4 | iSN04: oligonucleotide specifically binding to NCL, SEQ ID NO: 14: 5′-AGATTAGGGTGAGGGTGA-3′ (DNA, backbone not given here) |  |  | can capture NCL only at a high concentration | can only bind to NCL | cannot capture MDM2 | cannot recruit MDM2 depending on its interaction with NCL | 1000-2000 | No G4 structural characteristics were detected | blocks the binding of NCL to MDM2
